In assay [1] the target is human orexin-1 receptor (hOX1R) (Homo sapiens, UniProt O43613). Description: FLIPR Ca2+ Flux Assay, hOX1R. Format: cell-based. To be noted: CHO cells expressing hOX1R; agonist 70 pM Ala-6,12 orexin-A. As for the experimental part: (§1) Chinese hamster ovary (CHO) cells expressing the human orexin-1 receptor (hOX1R) or the human orexin-2 receptor (hOX2R) were grown in Iscove's modified DMEM containing 2 mM L-glutamine, […], 1% hypoxanthine-thymidine supplement, 100 U/ml penicillin, 100 μg/ml streptomycin and 10% heat-inactivated fetal calf serum (FCS). The cells were seeded at 20,000 cells/well into Becton-Dickinson black 384-well clear bottom sterile plates coated with poly-D-lysine. All reagents were from GIBCO-Invitrogen Corp. The seeded plates were incubated overnight at 37° C. and 5% CO2. Ala-6,12 human orexin-A, used as the agonist, was prepared as a 1 mM stock solution in 1% bovine serum albumin (BSA) and diluted in assay buffer (HBSS containing 20 mM HEPES, 0.1% BSA and 2.5 mM probenecid, pH7.4) for use in the assay at a final concentration of 70 pM. Test compounds were prepared as 10 mM stock solution in DMSO, then diluted in 384-well plates, first in DMSO, then assay buffer.
On the day of the assay, cells were washed 3× with 100 μl assay buffer and then incubated for 60 minutes (37° C., 5% CO2) in 60 μl assay buffer containing 1 μM Fluo-4AM ester, 0.02% pluronic acid, and 1% BSA. The dye loading solution was then aspirated and cells were washed 3× with 100 μl assay buffer. 30 μl of that same buffer was left in each well. Within the Fluorescent Imaging Plate Reader (FLIPR, Molecular Devices), test compounds were added to the plate in a volume of 25 μl, incubated for 5 minutes, and then 25 μl of agonist was added. Fluorescence was measured for each well at 1 second intervals for 5 minutes, and the height of each fluorescence peak was compared to the height of the fluorescence peak induced by 70 pM of Ala-6,12 orexin-A with buffer in place of test compound.

The target in assay [2] is human orexin-2 receptor (hOX2R) (Homo sapiens (Human), UniProt O43614). Description: FLIPR Ca2+ Flux Assay, hOX2R. Type of assay: cell-based. To be noted: CHO cells expressing hOX2R; agonist 70 pM Ala-6,12 orexin-A. The protocol:
In a typical experiment the OX1 and OX2 receptor antagonistic activity of the compounds of the present invention was determined in accordance with the following experimental method. For intracellular calcium measurements, Chinese hamster ovary (CHO) cells expressing the rat orexin-1 receptor or the human orexin-2 receptor, are grown in Iscove's modified DMEM containing 2 mM L-glutamine, […], 1% hypoxanthine-thymidine supplement, 100 U/ml penicillin, 100 μg/ml streptomycin and 10% heat-inactivated fetal calf serum (FCS). The cells are seeded at 20,000 cells/well into Becton-Dickinson black 384-well clear bottom sterile plates coated with poly-D-lysine. All reagents were from GIBCO-Invitrogen Corp. The seeded plates are incubated overnight at 37° C. and 5% CO2. Ala-6,12 human orexin-A as the agonist is prepared as a 1 mM stock solution in 1% bovine serum albumin (BSA) and diluted in assay buffer (HBSS containing 20 mM HEPES, 0.1% BSA and 2.5 mM probenecid, pH7.4) for use in the assay at a final concentration of 70 pM. Test compounds are prepared as 10 mM stock solution in DMSO, then diluted in 384-well plates, first in DMSO, then assay buffer. On the day of the assay, cells are washed 3 times with 100 μl assay buffer and then incubated for 60 min (37° C., 5% CO2) in 60 μl assay buffer containing 1 μM Fluo-4AM ester, 0.02% pluronic acid, and 1% BSA. The dye loading solution is then aspirated and cells are washed 3 times with 100 μl assay buffer. 30 μl of that same buffer is left in each well. Within the Fluorescent Imaging Plate Reader (FLIPR, Molecular Devices), test compounds are added to the plate in a volume of 25 μl, incubated for 5 min and finally 25 μl of agonist is added. Fluorescence is measured for each well at 1 second intervals for 5 minutes and the height of each fluorescence peak is compared to the height of the fluorescence peak induced by 70 pM Ala-6,12 orexin-A with buffer in place of antagonist. […] Alternatively, compound potency can be assessed by a radioligand binding assay (described in Bergman et. al. Bioorg. Med. Chem. Lett. 2008, 18, 1425-1430) in which the inhibition constant (Ki) is determined in membranes prepared from CHO cells expressing either the OX1 or OX2 receptor. The intrinsic orexin receptor antagonist activity of a compound which may be used in the present invention may be determined by these assays.
as §1
On the day of the assay, cells were washed 3× with 100 μl assay buffer and then incubated for 60 minutes (37° C., 5% CO2) in 60 μl assay buffer containing 1 μM Fluo-4AM ester, 0.02% pluronic acid, and 1% BSA. The dye loading solution was then aspirated and cells were washed 3× with 100 μl assay buffer.

Chain of human orexin-2 receptor (hOX2R) (O43614 whole entry): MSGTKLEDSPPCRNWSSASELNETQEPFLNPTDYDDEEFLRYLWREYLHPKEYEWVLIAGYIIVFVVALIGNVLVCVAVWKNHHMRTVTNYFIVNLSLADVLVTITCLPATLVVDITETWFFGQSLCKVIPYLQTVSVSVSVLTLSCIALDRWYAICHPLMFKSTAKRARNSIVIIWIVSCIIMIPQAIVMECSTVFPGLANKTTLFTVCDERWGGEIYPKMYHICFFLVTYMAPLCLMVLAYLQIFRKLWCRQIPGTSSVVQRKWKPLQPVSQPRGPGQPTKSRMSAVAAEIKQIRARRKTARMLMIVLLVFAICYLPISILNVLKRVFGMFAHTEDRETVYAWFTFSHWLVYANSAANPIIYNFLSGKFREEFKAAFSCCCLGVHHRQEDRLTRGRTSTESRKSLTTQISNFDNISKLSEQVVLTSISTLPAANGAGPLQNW

On to `CCC(C)(O)c1cccc(O[C@@H]2CC[C@@H](C)N(C(=O)c3ccccc3-n3nccn3)C2)c1` (stereo partly drawn) [Example 18, 2-(3-{[(3R,6R)-6-Methyl-1-{[2-(2H-1,2,3-triazol-2-yl)phenyl]carbonyl}piperidin-3-yl]oxy}phenyl)butan-2-ol], for which the IC50 came out at 0.827 µM in assay [1] and 24 nM in assay [2].

Regarding `CC(O)c1cccc(O[C@@H]2CC[C@@H](C)N(C(=O)c3ccccc3-n3nccn3)C2)c1` (stereo partly drawn) [Example 1, 1-(3-{[(3R,6R)-6-Methyl-1-{[2-(2H-1,2,3-triazol-2-yl)phenyl]carbonyl}piperidin-3-yl]oxy}phenyl)ethanol], the IC50 in assay [1] was found to be 4.51 µM; in assay [2], 98 nM.

For the compound “(1S)-1-Methyl-6-{[(3R,6R)-6-methyl-1-{[2-(2H-1,2,3-triazol-2-yl)phenyl]carbonyl}piperidin-3-yl]oxy}-2,3-dihydro-1H-inden-1-ol [Example 35]”, the figures for the half-maximal inhibitory concentration (IC50) in assay [1] and in assay [2] were 3.35 µM and 164 nM, respectively.

Consider `C[C@@H]1CC[C@@H](Oc2cccc3c2CC[C@H]3O)CN1C(=O)c1ccccc1-n1nccn1` [Example 25, (1R)-4-{[(3R,6R)-6-Methyl-1-{[2-(2H-1,2,3-triazol-2-yl)phenyl]carbonyl}piperidin-3-yl]oxy}-2,3-dihydro-1H-inden-1-ol], for which the concentration for half-maximal inhibition (IC50) in assay [1] was found to be 7.2 µM; in assay [2] it was 238 nM.

As for `C[C@@H]1CC[C@@H](Oc2cccc3c2CCC[C@@]3(C)O)CN1C(=O)c1ccccc1-n1nccn1` [Example 29, (1R)-1-Methyl-5-{[(3R,6R)-6-methyl-1-{[2-(2H-1,2,3-triazol-2-yl)phenyl]carbonyl}piperidin-3-yl]oxy}-1,2,3,4-tetrahydronaphthalen-1-ol], the results for the IC50 in assay [1] and in assay [2] were 10 µM and 123 nM, respectively.

Regarding `C[C@@H]1CC[C@@H](Oc2cccc3c2CCC[C@]3(C)O)CN1C(=O)c1ccccc1-n1nccn1` [Example 30, (1S)-1-methyl-5-{[(3R,6R)-6-methyl-1-{[2-(2H-1,2,3-triazol-2-yl)phenyl]carbonyl}piperidin-3-yl]oxy}-1,2,3,4-tetrahydronaphthalen-1-ol], the half-inhibitory concentration (IC50) in assay [1] was 0.289 µM; in assay [2], 20 nM.

In the case of `C[C@@H]1CC[C@@H](Oc2cccc(C(C)(O)C3CCCC3)c2)CN1C(=O)c1ccccc1-n1nccn1` (stereo partly drawn) [Example 16, 1-Cyclopentyl-1-(3-{[(3R,6R)-6-methyl-1-{[2-(2H-1,2,3-triazol-2-yl)phenyl]carbonyl}-piperidin-3-yl]oxy}phenyl)ethanol], the half-maximal inhibitory concentration (IC50) was found to be 3.42 µM in assay [1] and 86 nM in assay [2].

Values taken from US9725434B2, “Hydroxy-substituted orexin receptor antagonists” (MERCK SHARP & DOHME CORP., priority 2013, dated 2017).
